Where two headings read alike, the source gives them in different places.
Tested on: N. gonorrhoeae
Assay: MIC determination, Etest
Assay type: cell-based, Neisseria gonorrhoeae
Conditions: for MIC: Neisseria gonorrhoeae
Text: The 2024 WHO N. gonorrhoeae reference strains were used for quality control. Only whole MIC doubling dilutions are reported. Clinical breakpoints or the epidemiological cutoff (ECOFF, to indicate azithromycin resistance) from EUCAST (v14.0, https://www.eucast.org/clinical_breakpoints) were used to classify isolates as antimicrobial susceptible or resistant. […] Two times the standard inoculum defined by CLSI was used to establish consistent growth in untreated control samples for some strains. In vitro time-kill assays were performed according to CLSI guidelines[65] using Columbia Broth (BD Difco) supplemented with 1% IsoVitaleX Enrichment (BD). Viable bacterial counts were generated by plating 10-fold serially diluted samples on GC agar plates containing 1% IsoVitaleX Enrichment (BD).

CN[C@@H]1[C@H](O)[C@H](NC)[C@H]2O[C@@]3(O)C(=O)C[C@@H](C)O[C@H]3O[C@@H]2[C@H]1O [Spectinomycin]
R: AMR phenotype (susceptibility category, EUCAST) (WHO O)
16 µg/mL: MIC (WHO F, Etest, read-out: MIC) | MIC (WHO K, Etest, read-out: MIC) | MIC (WHO L, Etest, read-out: MIC) | MIC (WHO M, Etest, read-out: MIC) | MIC (WHO S2, Etest, read-out: MIC) | MIC (WHO V, Etest, read-out: MIC) | MIC (WHO X, Etest, read-out: MIC) | MIC (WHO Y, Etest, read-out: MIC) | MIC (WHO Z, Etest, read-out: MIC) | MIC (comparator antibiotics, clinical N. gonorrhoeae isolate 1, Sweden 2023, read-out: Minimum inhibitory concentration) | MIC (comparator antibiotics, clinical N. gonorrhoeae isolate 3, Sweden 2023, read-out: Minimum inhibitory concentration) | MIC (comparator antibiotics, clinical N. gonorrhoeae isolate 4, Sweden 2023, read-out: Minimum inhibitory concentration) | MIC (comparator antibiotics, clinical N. gonorrhoeae isolate 7, Sweden 2023, read-out: Minimum inhibitory concentration) | MIC (comparator antibiotics, clinical N. gonorrhoeae isolate 8, Sweden 2023, read-out: Minimum inhibitory concentration) | MIC (comparator antibiotics, clinical N. gonorrhoeae isolate 10, Sweden 2023, read-out: Minimum inhibitory concentration) | MIC (comparator antibiotics, clinical N. gonorrhoeae isolate 11, Sweden 2023, read-out: Minimum inhibitory concentration) | MIC (comparator antibiotics, clinical N. gonorrhoeae isolate 12, Sweden 2023, read-out: Minimum inhibitory concentration) | MIC (comparator antibiotics, clinical N. gonorrhoeae isolate 13, Sweden 2023, read-out: Minimum inhibitory concentration) | MIC (comparator antibiotics, clinical N. gonorrhoeae isolate 14, Sweden 2023, read-out: Minimum inhibitory concentration) | MIC (comparator antibiotics, clinical N. gonorrhoeae isolate 15, Sweden 2023, read-out: Minimum inhibitory concentration) | MIC (comparator antibiotics, clinical N. gonorrhoeae isolate 18, Sweden 2023, read-out: Minimum inhibitory concentration) | MIC (comparator antibiotics, clinical N. gonorrhoeae isolate 19, Sweden 2023, read-out: Minimum inhibitory concentration) | MIC (comparator antibiotics, clinical N. gonorrhoeae isolate 20, Sweden 2023, read-out: Minimum inhibitory concentration) | MIC (comparator antibiotics, clinical N. gonorrhoeae isolate 21, Sweden 2023, read-out: Minimum inhibitory concentration) | MIC (comparator antibiotics, clinical N. gonorrhoeae isolate 24, Sweden 2023, read-out: Minimum inhibitory concentration) | MIC (comparator antibiotics, clinical N. gonorrhoeae isolate 26, Sweden 2023, read-out: Minimum inhibitory concentration) | MIC (comparator antibiotics, clinical N. gonorrhoeae isolate 29, Sweden 2023, read-out: Minimum inhibitory concentration) | MIC (comparator antibiotics, clinical N. gonorrhoeae isolate 35, Sweden 2023, read-out: Minimum inhibitory concentration) | MIC (comparator antibiotics, clinical N. gonorrhoeae isolate 39, Sweden 2023, read-out: Minimum inhibitory concentration) | MIC (comparator antibiotics, clinical N. gonorrhoeae isolate 41, Sweden 2023, read-out: Minimum inhibitory concentration) | MIC (comparator antibiotics, clinical N. gonorrhoeae isolate 43, Sweden 2023, read-out: Minimum inhibitory concentration) | MIC (comparator antibiotics, clinical N. gonorrhoeae isolate 44, Sweden 2023, read-out: Minimum inhibitory concentration) | MIC (comparator antibiotics, clinical N. gonorrhoeae isolate 45, Sweden 2023, read-out: Minimum inhibitory concentration) | MIC (comparator antibiotics, clinical N. gonorrhoeae isolate 47, Sweden 2023, read-out: Minimum inhibitory concentration) | MIC (comparator antibiotics, clinical N. gonorrhoeae isolate 49, Sweden 2023, read-out: Minimum inhibitory concentration) | MIC (comparator antibiotics, clinical N. gonorrhoeae isolate 50, Sweden 2023, read-out: Minimum inhibitory concentration) | MIC (comparator antibiotics, clinical N. gonorrhoeae isolate 52, Sweden 2023, read-out: Minimum inhibitory concentration) | MIC (comparator antibiotics, clinical N. gonorrhoeae isolate 54, Sweden 2023, read-out: Minimum inhibitory concentration) | MIC (comparator antibiotics, clinical N. gonorrhoeae isolate 55, Sweden 2023, read-out: Minimum inhibitory concentration) | MIC (comparator antibiotics, clinical N. gonorrhoeae isolate 60, Sweden 2023, read-out: Minimum inhibitory concentration) | MIC (comparator antibiotics, clinical N. gonorrhoeae isolate 63, Sweden 2023, read-out: Minimum inhibitory concentration) | MIC (comparator antibiotics, clinical N. gonorrhoeae isolate 64, Sweden 2023, read-out: Minimum inhibitory concentration) | MIC (comparator antibiotics, clinical N. gonorrhoeae isolate 65, Sweden 2023, read-out: Minimum inhibitory concentration) | MIC (comparator antibiotics, clinical N. gonorrhoeae isolate 66, Sweden 2023, read-out: Minimum inhibitory concentration) | MIC (comparator antibiotics, clinical N. gonorrhoeae isolate 67, Sweden 2023, read-out: Minimum inhibitory concentration) | MIC (comparator antibiotics, clinical N. gonorrhoeae isolate 68, Sweden 2023, read-out: Minimum inhibitory concentration) | MIC (comparator antibiotics, clinical N. gonorrhoeae isolate 69, Sweden 2023, read-out: Minimum inhibitory concentration) | MIC (comparator antibiotics, clinical N. gonorrhoeae isolate 71, Sweden 2023, read-out: Minimum inhibitory concentration) | MIC (comparator antibiotics, clinical N. gonorrhoeae isolate 73, Sweden 2023, read-out: Minimum inhibitory concentration) | MIC (comparator antibiotics, clinical N. gonorrhoeae isolate 74, Sweden 2023, read-out: Minimum inhibitory concentration) | MIC (comparator antibiotics, clinical N. gonorrhoeae isolate 77, Sweden 2023, read-out: Minimum inhibitory concentration) | MIC (comparator antibiotics, clinical N. gonorrhoeae isolate 78, Sweden 2023, read-out: Minimum inhibitory concentration) | MIC (comparator antibiotics, clinical N. gonorrhoeae isolate 80, Sweden 2023, read-out: Minimum inhibitory concentration) | MIC (comparator antibiotics, clinical N. gonorrhoeae isolate 81, Sweden 2023, read-out: Minimum inhibitory concentration) | MIC (comparator antibiotics, clinical N. gonorrhoeae isolate 82, Sweden 2023, read-out: Minimum inhibitory concentration) | MIC (comparator antibiotics, clinical N. gonorrhoeae isolate 84, Sweden 2023, read-out: Minimum inhibitory concentration) | MIC (comparator antibiotics, clinical N. gonorrhoeae isolate 88, Sweden 2023, read-out: Minimum inhibitory concentration) | MIC (comparator antibiotics, clinical N. gonorrhoeae isolate 89, Sweden 2023, read-out: Minimum inhibitory concentration) | MIC (comparator antibiotics, clinical N. gonorrhoeae isolate 90, Sweden 2023, read-out: Minimum inhibitory concentration) | MIC (comparator antibiotics, clinical N. gonorrhoeae isolate 93, Sweden 2023, read-out: Minimum inhibitory concentration) | MIC (comparator antibiotics, clinical N. gonorrhoeae isolate 95, Sweden 2023, read-out: Minimum inhibitory concentration) | MIC (comparator antibiotics, clinical N. gonorrhoeae isolate 97, Sweden 2023, read-out: Minimum inhibitory concentration) | MIC (comparator antibiotics, clinical N. gonorrhoeae isolate 100, Sweden 2023, read-out: Minimum inhibitory concentration)
S: AMR phenotype (susceptibility category, EUCAST) (WHO F) | AMR phenotype (susceptibility category, EUCAST) (WHO H) | AMR phenotype (susceptibility category, EUCAST) (WHO K) | AMR phenotype (susceptibility category, EUCAST) (WHO L) | AMR phenotype (susceptibility category, EUCAST) (WHO M) | AMR phenotype (susceptibility category, EUCAST) (WHO P) | AMR phenotype (susceptibility category, EUCAST) (WHO Q) | AMR phenotype (susceptibility category, EUCAST) (WHO R) | AMR phenotype (susceptibility category, EUCAST) (WHO S2) | AMR phenotype (susceptibility category, EUCAST) (WHO U) | AMR phenotype (susceptibility category, EUCAST) (WHO V) | AMR phenotype (susceptibility category, EUCAST) (WHO X) | AMR phenotype (susceptibility category, EUCAST) (WHO Y) | AMR phenotype (susceptibility category, EUCAST) (WHO Z)
8 µg/mL: MIC (WHO H, Etest, read-out: MIC) | MIC (WHO P, Etest, read-out: MIC) | MIC (WHO Q, Etest, read-out: MIC) | MIC (WHO R, Etest, read-out: MIC) | MIC (WHO U, Etest, read-out: MIC) | MIC (comparator antibiotics, clinical N. gonorrhoeae isolate 2, Sweden 2023, read-out: Minimum inhibitory concentration) | MIC (comparator antibiotics, clinical N. gonorrhoeae isolate 5, Sweden 2023, read-out: Minimum inhibitory concentration) | MIC (comparator antibiotics, clinical N. gonorrhoeae isolate 6, Sweden 2023, read-out: Minimum inhibitory concentration) | MIC (comparator antibiotics, clinical N. gonorrhoeae isolate 9, Sweden 2023, read-out: Minimum inhibitory concentration) | MIC (comparator antibiotics, clinical N. gonorrhoeae isolate 16, Sweden 2023, read-out: Minimum inhibitory concentration) | MIC (comparator antibiotics, clinical N. gonorrhoeae isolate 17, Sweden 2023, read-out: Minimum inhibitory concentration) | MIC (comparator antibiotics, clinical N. gonorrhoeae isolate 22, Sweden 2023, read-out: Minimum inhibitory concentration) | MIC (comparator antibiotics, clinical N. gonorrhoeae isolate 23, Sweden 2023, read-out: Minimum inhibitory concentration) | MIC (comparator antibiotics, clinical N. gonorrhoeae isolate 25, Sweden 2023, read-out: Minimum inhibitory concentration) | MIC (comparator antibiotics, clinical N. gonorrhoeae isolate 27, Sweden 2023, read-out: Minimum inhibitory concentration) | MIC (comparator antibiotics, clinical N. gonorrhoeae isolate 28, Sweden 2023, read-out: Minimum inhibitory concentration) | MIC (comparator antibiotics, clinical N. gonorrhoeae isolate 30, Sweden 2023, read-out: Minimum inhibitory concentration) | MIC (comparator antibiotics, clinical N. gonorrhoeae isolate 31, Sweden 2023, read-out: Minimum inhibitory concentration) | MIC (comparator antibiotics, clinical N. gonorrhoeae isolate 32, Sweden 2023, read-out: Minimum inhibitory concentration) | MIC (comparator antibiotics, clinical N. gonorrhoeae isolate 33, Sweden 2023, read-out: Minimum inhibitory concentration) | MIC (comparator antibiotics, clinical N. gonorrhoeae isolate 34, Sweden 2023, read-out: Minimum inhibitory concentration) | MIC (comparator antibiotics, clinical N. gonorrhoeae isolate 36, Sweden 2023, read-out: Minimum inhibitory concentration) | MIC (comparator antibiotics, clinical N. gonorrhoeae isolate 37, Sweden 2023, read-out: Minimum inhibitory concentration) | MIC (comparator antibiotics, clinical N. gonorrhoeae isolate 38, Sweden 2023, read-out: Minimum inhibitory concentration) | MIC (comparator antibiotics, clinical N. gonorrhoeae isolate 40, Sweden 2023, read-out: Minimum inhibitory concentration) | MIC (comparator antibiotics, clinical N. gonorrhoeae isolate 42, Sweden 2023, read-out: Minimum inhibitory concentration) | MIC (comparator antibiotics, clinical N. gonorrhoeae isolate 46, Sweden 2023, read-out: Minimum inhibitory concentration) | MIC (comparator antibiotics, clinical N. gonorrhoeae isolate 48, Sweden 2023, read-out: Minimum inhibitory concentration) | MIC (comparator antibiotics, clinical N. gonorrhoeae isolate 51, Sweden 2023, read-out: Minimum inhibitory concentration) | MIC (comparator antibiotics, clinical N. gonorrhoeae isolate 53, Sweden 2023, read-out: Minimum inhibitory concentration) | MIC (comparator antibiotics, clinical N. gonorrhoeae isolate 56, Sweden 2023, read-out: Minimum inhibitory concentration) | MIC (comparator antibiotics, clinical N. gonorrhoeae isolate 57, Sweden 2023, read-out: Minimum inhibitory concentration) | MIC (comparator antibiotics, clinical N. gonorrhoeae isolate 58, Sweden 2023, read-out: Minimum inhibitory concentration) | MIC (comparator antibiotics, clinical N. gonorrhoeae isolate 59, Sweden 2023, read-out: Minimum inhibitory concentration) | MIC (comparator antibiotics, clinical N. gonorrhoeae isolate 61, Sweden 2023, read-out: Minimum inhibitory concentration) | MIC (comparator antibiotics, clinical N. gonorrhoeae isolate 62, Sweden 2023, read-out: Minimum inhibitory concentration) | MIC (comparator antibiotics, clinical N. gonorrhoeae isolate 70, Sweden 2023, read-out: Minimum inhibitory concentration) | MIC (comparator antibiotics, clinical N. gonorrhoeae isolate 72, Sweden 2023, read-out: Minimum inhibitory concentration) | MIC (comparator antibiotics, clinical N. gonorrhoeae isolate 75, Sweden 2023, read-out: Minimum inhibitory concentration) | MIC (comparator antibiotics, clinical N. gonorrhoeae isolate 76, Sweden 2023, read-out: Minimum inhibitory concentration) | MIC (comparator antibiotics, clinical N. gonorrhoeae isolate 79, Sweden 2023, read-out: Minimum inhibitory concentration) | MIC (comparator antibiotics, clinical N. gonorrhoeae isolate 83, Sweden 2023, read-out: Minimum inhibitory concentration) | MIC (comparator antibiotics, clinical N. gonorrhoeae isolate 85, Sweden 2023, read-out: Minimum inhibitory concentration) | MIC (comparator antibiotics, clinical N. gonorrhoeae isolate 86, Sweden 2023, read-out: Minimum inhibitory concentration) | MIC (comparator antibiotics, clinical N. gonorrhoeae isolate 87, Sweden 2023, read-out: Minimum inhibitory concentration) | MIC (comparator antibiotics, clinical N. gonorrhoeae isolate 92, Sweden 2023, read-out: Minimum inhibitory concentration) | MIC (comparator antibiotics, clinical N. gonorrhoeae isolate 94, Sweden 2023, read-out: Minimum inhibitory concentration) | MIC (comparator antibiotics, clinical N. gonorrhoeae isolate 96, Sweden 2023, read-out: Minimum inhibitory concentration)
susceptible: susceptibility of all isolates (100 contemporary clinical N. gonorrhoeae isolates, EUCAST)
> 1020 µg/mL: MIC (WHO O, Etest, read-out: MIC)
4 µg/mL: MIC (comparator antibiotics, clinical N. gonorrhoeae isolate 91, Sweden 2023, read-out: Minimum inhibitory concentration) | MIC (comparator antibiotics, clinical N. gonorrhoeae isolate 98, Sweden 2023, read-out: Minimum inhibitory concentration) | MIC (comparator antibiotics, clinical N. gonorrhoeae isolate 99, Sweden 2023, read-out: Minimum inhibitory concentration)

— paper PMC12446476 (Nature Communications, 2025)
